According to publication PMC9388600, “Uncovering the roles of dihydropyrimidine dehydrogenase in fatty-acid induced steatosis using human cellular models” (Scientific Reports, 2022):
Substitutions are numbered along the chain they refer to.

Key:
[1] = target: T1, Dihydropyrimidine dehydrogenase (DPYD) (Homo sapiens, UniProt Q12882); test: uracil accumulation in media of primary human hepatocytes treated with inhibitor, LC/MS/MS (endogenous DPYD); format: cell-based
T1 sequence (Q12882 4-1025): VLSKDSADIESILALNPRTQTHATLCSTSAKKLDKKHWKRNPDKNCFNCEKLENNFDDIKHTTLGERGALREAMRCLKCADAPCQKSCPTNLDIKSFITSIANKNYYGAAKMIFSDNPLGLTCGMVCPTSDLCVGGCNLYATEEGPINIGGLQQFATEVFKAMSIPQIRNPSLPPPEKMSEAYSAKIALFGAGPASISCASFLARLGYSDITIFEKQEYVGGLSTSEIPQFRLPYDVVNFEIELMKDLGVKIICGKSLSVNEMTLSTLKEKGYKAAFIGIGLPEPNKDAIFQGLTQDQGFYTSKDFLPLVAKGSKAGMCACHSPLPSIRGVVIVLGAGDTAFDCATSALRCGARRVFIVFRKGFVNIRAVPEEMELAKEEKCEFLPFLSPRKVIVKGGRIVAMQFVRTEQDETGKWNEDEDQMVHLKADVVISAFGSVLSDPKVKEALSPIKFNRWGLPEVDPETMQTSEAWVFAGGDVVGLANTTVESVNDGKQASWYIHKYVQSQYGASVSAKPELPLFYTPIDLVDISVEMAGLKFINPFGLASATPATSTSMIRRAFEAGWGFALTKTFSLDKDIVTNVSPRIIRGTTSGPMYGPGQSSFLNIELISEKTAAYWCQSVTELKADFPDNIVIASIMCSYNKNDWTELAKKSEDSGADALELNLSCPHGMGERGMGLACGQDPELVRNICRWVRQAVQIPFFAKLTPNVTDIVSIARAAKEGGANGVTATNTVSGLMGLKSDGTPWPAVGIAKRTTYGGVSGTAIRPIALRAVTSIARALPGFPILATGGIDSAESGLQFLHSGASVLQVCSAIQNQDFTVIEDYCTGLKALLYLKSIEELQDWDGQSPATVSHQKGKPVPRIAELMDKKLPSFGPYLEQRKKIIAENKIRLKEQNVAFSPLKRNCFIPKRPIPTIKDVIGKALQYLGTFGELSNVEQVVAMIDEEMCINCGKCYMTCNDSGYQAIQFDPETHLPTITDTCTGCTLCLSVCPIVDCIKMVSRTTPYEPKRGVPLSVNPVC

[2] = target: T2, Dihydropyrimidine dehydrogenase (DPYD) (Homo sapiens, UniProt Q12882, L310S); test: steady-state kinetics of purified mutant enzyme, fluorometric NADPH depletion; substrate inhibition model (kcat); format: biochemical
T2 construct: recombinant L310S mutant DPYD, expressed from pET28a(+) in E. coli
T2 sequence (Q12882 4-1025 L310S): T1 sequence (Q12882 4-1025) with L307S

[3] = target: T1, Dihydropyrimidine dehydrogenase (DPYD); test: steady-state kinetics of purified enzyme, fluorometric NADPH depletion; substrate inhibition model (kcat); format: biochemical; set-up: recombinant wild type DPYD, expressed from pET28a(+) in E. coli
Protocol: steady-state kinetics of purified enzyme, fluorometric NADPH depletion; substrate inhibition model (kcat) on Dihydropyrimidine dehydrogenase (DPYD) | The kinetic measurements of DPYD were carried out by varying concentrations of uracil.

| IC50 [1] | steady-state kinetics of purified mutant enzyme, fluorometric NADPH depletion; s [2] | steady-state kinetics of purified enzyme, fluorometric NADPH depletion; substrat [3] | Compound |
| --- | --- | --- | --- |
| 56 nM | – | – | Oc1cc(O)c(Cl)cn1 [Gimeracil] |
| – | 99 ± 5 min⁻¹ | 65 ± 4 min⁻¹ | O=c1cc[nH]c(=O)[nH]1 [uracil] |
